Experimental data reported in patent US20250353816A1, “QUINOLINES AS MODULATORS OF POLRMT” (Pretzel Therapeutics, Inc., priority 2024, published 2025).

Target: POLRMT (Homo sapiens (Human), UniProt O00411)
Assay: homogeneous TR-FRET assay of mitochondrial transcription (inhibition of POLRMT)
Assay type: biochemical
Conditions: 7.5 nM POLRMT, 15 nM TFB2M, 30 nM TFAM, 60 minutes at 37° C.
Protocol: The inhibitory activity of the compounds of the present invention against POLRMT were determined by assays based on Bergbrede, T., et al., “An adaptable high-throughput technology enabling the identification of specific transcription modulators,” SLAC Discov., 22, 378-386 (2017).
The ability of some compounds of the present invention to inhibit POLRMT were determined in a homogeneous TR-FRET Assay using high-throughput screening in a 384-well plate format. This method is used to monitor the activity of mitochondrial transcription through measurement of its product, a 407 bp long RNA transcript. Detection of the product is facilitated by hybridization of two DNA-oligonucleotide probes to specific and adjacent sequences within the RNA product sequence. Upon annealing of the probes, two fluorophores are coupled directly to an acceptor nucleotide probe (ATTO647, 5′), or introduced via a coupled streptavidin with a biotinylated donor nucleotide probe (Europium cryptate) that is brought into sufficient proximity to serve as a fluorescence-donor-acceptor pair. Thus, a FRET signal at 665 nm is generated upon excitation at 340 nm.
Proteins used as transcription factors (POLRMT: NP_005026.3, TFAM: NP_003192.1, TFB2M: NP_071761.1) are diluted from their stocks to working concentrations of 1 μM, 20 μM and 4 μM respectively, in a dilution buffer containing 20 mM Tris-HCl (pH 8.0), 200 mM NaCl, 10% (v/v) glycerol, 1 mM Dithiothreitol (DTT), 0.5 mM EDTA.
DNA template is a pUC18 plasmid with the mitochondrial light strand promotor sequence (1-477) cloned between HindIII and BamHI sites. The DNA template is restriction linearized proximal to the promotor 3′-end (pUC-LSP).
The reaction mixture (10 uL) containing 7.5 nM POLRMT, 15 nM of TFB2M, 30 nM of TFAM, 0.5 nM of DNA template and 500 μM nucleotide triphosphate mix (NTPs) in a reaction buffer (containing 10 mM Tris-HCl (pH 7.5), 10 mM MgCl2, 40 mM NaCl, 10 mM DTT, 0.005% (w/v) Tween-20, 160 units/ml Rnase inhibitor and 0.1 mg/mL BSA) are dispensed to compounds in microplates, using a Thermo Multidrop® dispenser, and incubated at 37° C. in a VWR INCU-Line incubator for 60 minutes after mixing. No nucleotide triphosphate mix is added to negative control samples. Microplates with compounds to be tested in the assay are prepared from 10 mM compound stocks in 100% DMSO, equal amounts of DMSO without any compound are added to positive control and negative control samples.
During the incubation, a mix of the detection reagents is prepared in a buffer such that the enzymatic reaction is terminated due to chelating of Mg-ions and increased ionic strength, containing 50 mM Tris-HCl (pH 7.5), 700 mM NaCl, 20 mM EDTA, and 0.01% (w/v) Tween-20. Europium-streptavidin is pre-incubated with a 200-fold molar excess of a random sequence oligonucleotide to block unspecific binding of oligo, for two hours at ambient temperature in the dark. Afterwards, the blocked Europium-streptavidin is kept on ice until use.
At the end of the enzymatic reaction time, 5 μL detection oligo mix in the detection buffer is added, and assay plates are mixed and kept at ambient temperature for one hour, protected from light. The concentration of the Acceptor nucleotide oligo (e.g., ATTO647N-5′-[…]-3′ (SEQ ID NO: 1)) and Donor nucleotide oligo (e.g., bio-5′-AACACATCTCT(-bio)GCCAAACCCCA-bio-3′ (SEQ ID NO: 2)) in each assay well is 1 nM, and 3 nM, respectively.
After incubation with oligo mix, 5 μL of pre-blocked Europium-streptavidin reagent is dispensed to each assay well, assay plates are again mixed and kept at ambient temperature for one hour, protected from light.
The generated signal is measured with BMG Pherastar microtiter plate reader with a TRF light unit, using excitation at 340 nm, an integration time of 200 μs, and a delay time of […], before detection at 620 nm and 665 nm. The ratio of donor- and acceptor-fluorescence is used as a measure of the generated transcript product (i.e. enzymatic activity).

POLRMT, sequence (O00411 42-1230): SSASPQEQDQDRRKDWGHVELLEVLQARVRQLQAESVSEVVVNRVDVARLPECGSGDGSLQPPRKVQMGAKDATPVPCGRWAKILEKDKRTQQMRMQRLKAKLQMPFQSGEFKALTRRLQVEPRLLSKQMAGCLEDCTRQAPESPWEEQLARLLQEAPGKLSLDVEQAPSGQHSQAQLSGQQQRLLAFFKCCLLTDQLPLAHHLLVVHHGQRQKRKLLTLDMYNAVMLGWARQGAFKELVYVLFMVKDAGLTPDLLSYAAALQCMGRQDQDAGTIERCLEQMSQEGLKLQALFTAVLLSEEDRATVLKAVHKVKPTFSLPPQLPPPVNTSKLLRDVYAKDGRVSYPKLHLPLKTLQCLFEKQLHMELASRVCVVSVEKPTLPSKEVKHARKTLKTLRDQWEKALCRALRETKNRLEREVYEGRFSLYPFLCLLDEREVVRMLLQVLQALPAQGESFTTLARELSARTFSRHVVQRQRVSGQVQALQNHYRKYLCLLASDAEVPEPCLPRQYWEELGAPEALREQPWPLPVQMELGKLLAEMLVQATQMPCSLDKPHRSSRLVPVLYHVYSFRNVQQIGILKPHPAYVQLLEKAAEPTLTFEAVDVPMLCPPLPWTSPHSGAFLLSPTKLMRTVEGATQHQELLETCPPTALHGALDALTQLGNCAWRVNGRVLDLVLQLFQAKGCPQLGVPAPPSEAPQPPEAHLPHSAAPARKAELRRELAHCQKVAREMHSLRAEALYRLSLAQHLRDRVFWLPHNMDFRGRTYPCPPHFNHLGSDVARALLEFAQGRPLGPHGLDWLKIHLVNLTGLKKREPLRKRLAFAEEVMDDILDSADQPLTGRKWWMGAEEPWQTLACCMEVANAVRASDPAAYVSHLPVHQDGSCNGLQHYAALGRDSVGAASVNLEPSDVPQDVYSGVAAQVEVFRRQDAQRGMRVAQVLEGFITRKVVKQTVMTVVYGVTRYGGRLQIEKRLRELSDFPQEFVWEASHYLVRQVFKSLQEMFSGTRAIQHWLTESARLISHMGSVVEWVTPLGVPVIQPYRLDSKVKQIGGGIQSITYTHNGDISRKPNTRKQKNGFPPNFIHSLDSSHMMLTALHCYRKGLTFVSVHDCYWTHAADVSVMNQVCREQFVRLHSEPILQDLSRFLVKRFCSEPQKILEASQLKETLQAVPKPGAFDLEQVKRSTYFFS

SMILES | IC50 [µM]
COC(=O)c1ccc2c(-c3ccccc3C)ccnc2c1 [Example 1, methyl 4-(o-tolyl)quinoline-7-carboxylate] | 3
Cc1ccccc1-c1ccnc2cc(NC(C)C(=O)N3CCCCC3)ccc12 (single isomer, unassigned) [Example 53, 1-(piperidin-1-yl)-2-((4-(o-tolyl)quinolin-7-yl)amino)propan-1-one] | 3
Cc1ccccc1-c1ccnc2cc(CC(=O)N3CCN(C)CC3)ccc12 [Example 39, 1-(4-methylpiperazin-1-yl)-2-(4-(o-tolyl)quinolin-7-yl)ethan-1-one] | > 100
Cc1ccccc1-c1ccnc2cc(CN3CCN(C)CC3)ccc12 [Example 28, 7-((4-methylpiperazin-1-yl)methyl)-4-(o-tolyl)quinoline] | > 100
Cc1ccccc1-c1ccnc2cc(C(=O)N3CCN(C)CC3)ccc12 [Example 8, (4-methylpiperazin-1-yl)-[4-(o-tolyl)-7-quinolyl]methanone] | > 100
Cc1ccccc1-c1ccnc2cc(C(C)CC(=O)N(C)C)ccc12 (single isomer, unassigned) [Example 37, N,N-dimethyl-3-(4-(o-tolyl)quinolin-7-yl)butanamide] | 79
CC(=O)N1CCN(C(=O)c2ccc3c(-c4ccccc4C)ccnc3c2)CC1 [Example 9, 1-(4-(4-(o-tolyl)quinoline-7-carbonyl)piperazin-1-yl)ethan-1-one] | > 100
Cc1ccccc1-c1ccnc2cc(CC(=O)NC3CC3)ccc12 [Example 30, N-cyclopropyl-2-(4-(o-tolyl)quinolin-7-yl)acetamide] | 91
Cc1ccccc1-c1ccnc2cc(CC(=O)N3CCOCC3)ccc12 [Example 36, 1-morpholino-2-(4-(o-tolyl)quinolin-7-yl)ethan-1-one] | > 100
Cc1ccccc1-c1ccnc2cc(NC(C)C(=O)N(C)C)ccc12 (single isomer, unassigned) [Example 49, N,N-dimethyl-2-((4-(o-tolyl)quinolin-7-yl)amino)propanamide] | 10
Cc1ccccc1-c1ccnc2cc(CN3CCOCC3)ccc12 [Example 20, 4-((4-(o-tolyl)quinolin-7-yl)methyl)morpholine] | > 100
Cc1ccccc1-c1ccnc2cc(CCO)ccc12 [Example 17, 2-(4-(o-tolyl)quinolin-7-yl)ethan-1-ol] | 10
Cc1ccccc1-c1ccnc2cc(CC(N)=O)ccc12 [Example 42, 2-(4-(o-tolyl)quinolin-7-yl)acetamide] | > 100
Cc1ccccc1-c1ccnc2cc(C(=O)N(C)Cc3ccccc3)ccc12 [Example 5, N-benzyl-N-methyl-4-(o-tolyl)quinoline-7-carboxamide] | > 100
Cc1ccccc1-c1ccnc2cc(C(=O)N(C)C)ccc12 [Example 4, N,N-dimethyl-4-(o-tolyl)quinoline-7-carboxamide] | > 100

Continued, values first:

IC50 [µM] | SMILES
70 | Cc1ccccc1-c1ccnc2cc(CC(C)C(=O)N3CCCCC3)ccc12 (single isomer, unassigned) [Example 35, 2-methyl-1-(piperidin-1-yl)-3-(4-(o-tolyl)quinolin-7-yl)propan-1-one]
37 | Cc1ccccc1-c1ccnc2cc(C(C)CC(=O)N(C)C)ccc12 (single isomer, unassigned) [Example 38, N,N-dimethyl-3-(4-(o-tolyl)quinolin-7-yl)butanamide]
5 | COCc1ccc2c(-c3ccccc3C)ccnc2c1 [Example 19, 7-(methoxymethyl)-4-(o-tolyl)quinoline]
50 | Cc1ccccc1-c1ccnc2cc(CO)ccc12 [Example 10, (4-(o-tolyl)quinolin-7-yl)methanol]
24 | Cc1ccccc1-c1ccnc2cc(CN(C)S(C)(=O)=O)ccc12 [Example 32, N-methyl-N-((4-(o-tolyl)quinolin-7-yl)methyl)methanesulfonamide]
59 | COC(=O)NCc1ccc2c(-c3ccccc3C)ccnc2c1 [Example 15, methyl ((4-(o-tolyl)quinolin-7-yl)methyl)carbamate]
> 100 | Cc1ccccc1-c1ccnc2cc(CN3CCCC3=O)ccc12 [Example 25]
90 | Cc1ccccc1-c1ccnc2cc(C(=O)NCc3ccccc3)ccc12 [Example 6, N-benzyl-4-(o-tolyl)quinoline-7-carboxamide]
15 | Cc1ccccc1-c1ccnc2cc(CNC(=O)OC(C)(C)C)ccc12 [Example 12, tert-butyl ((4-(o-tolyl)quinolin-7-yl)methyl)carbamate]
> 100 | Cc1ccccc1-c1ccnc2cc(C(N)=O)ccc12 [Example 2, 4-(o-tolyl)quinoline-7-carboxamide]
7 | Cc1ccccc1-c1ccnc2cc(N(C)C)ccc12 [Example 16, N,N-dimethyl-4-(o-tolyl)quinolin-7-amine]
2 | Cc1ccccc1-c1ccnc2cc(NC(C)C(=O)N3CCOCC3)ccc12 (single isomer, unassigned) [Example 50, 1-morpholino-2-((4-(o-tolyl)quinolin-7-yl)amino)propan-1-one]
29 | Cc1ccccc1-c1ccnc2cc(CNC(=O)C3CCCC3)ccc12 [Example 13, N-((4-(o-tolyl)quinolin-7-yl)methyl)cyclopentanecarboxamide]
> 100 | Cc1ccccc1-c1ccnc2cc(NC(C)C(=O)N3CCOCC3)ccc12 (single isomer, unassigned) [Example 51, 1-morpholino-2-((4-(o-tolyl)quinolin-7-yl)amino)propan-1-one]
74 | Cc1ccccc1-c1ccnc2cc(C#N)ccc12 [Example 33, 4-(o-tolyl)quinoline-7-carbonitrile]
10 | CC(=O)Nc1ccc2c(-c3ccccc3C)ccnc2c1 [Example 11, N-(4-(o-tolyl)quinolin-7-yl)acetamide]
> 100 | Cc1ccccc1-c1ccnc2cc(C(C)OCC(=O)O)ccc12 (stereo not drawn) [Example 54, 2-(1-(4-(o-tolyl)quinolin-7-yl)ethoxy)acetic acid]
8 | Cc1ccccc1-c1ccnc2cc(NC(C)C(=O)N3CCOCC3)ccc12 (stereo not drawn) [Example 46, 1-morpholino-2-((4-(o-tolyl)quinolin-7-yl)amino)propan-1-one]
72 | Cc1ccccc1-c1ccnc2cc(CNS(C)(=O)=O)ccc12 [Example 22, N-((4-(o-tolyl)quinolin-7-yl)methyl)methanesulfonamide]
> 100 | Cc1ccccc1-c1ccnc2cc(NC(C)C(=O)N3CCCCC3)ccc12 (single isomer, unassigned) [Example 52, 1-(piperidin-1-yl)-2-((4-(o-tolyl)quinolin-7-yl)amino)propan-1-one]
> 100 | Cc1ccccc1-c1ccnc2cc(C(C)OCC(N)=O)ccc12 (stereo not drawn) [Example 56, 2-(1-(4-(o-tolyl)quinolin-7-yl)ethoxy)acetamide]
